These results are taken from ChEMBL document CHEMBL1201862, “PubChem BioAssay data set” (2004).

Several values for one entry are separate records, joined by “and”; a condition that tells them apart may be missing. Equal values may be shown once.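 Assay format: 96-well plates, 48-hour exposure. Here, GI50 denotes the concentration required for 50% inhibition of growth.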 Activity calls are given as the source filed them. No stated cut-off is given here; in the data, active = GI50 up to about 1.1 µM and inactive = higher.

Test systems include NCI-H460; PC-3; SK-MEL-28; MDA-MB-435; HT-29; SF-539; TK-10; MDA-MB-231; UACC-62; MCF7; A498; LOX IMVI; OVCAR-3; T47D; A549; SR; OVCAR-8; SK-MEL-5; SK-OV-3; RXF 393.
Holding throughout (experiment): DTP human tumour cell line panel, 48 h

Regarding `Cc1ccc(NC2=NCCO2)c2c1CCC2`, the GI50 is 27.5 µM (inactive) with NCI-H460; 25.4 µM (inactive) in the test with PC-3; 32.8 µM (inactive) in the test with SK-MEL-28; 20.5 µM (inactive) in the test on MDA-MB-435; 33.3 µM (inactive) in the test with HT-29; 22 µM (inactive) in the test on SF-539. Further, the GI50 in the test with TK-10 is > 100 µM (inactive); in the test with MDA-MB-231, 19.7 µM (inactive); with UACC-62, 30.7 µM (inactive); in the test on MCF7 it was 31.8 µM (inactive); with A498, 41.6 µM (inactive); in the test with LOX IMVI, 22.8 µM (inactive). Moreover, the GI50 in the test on OVCAR-3 was 21.6 µM (inactive); in the test on T47D, 51.3 µM (inactive); in the test with A549, 41.7 µM (inactive); with SR, 22.1 µM (inactive); with OVCAR-8, 35.1 µM (inactive); in the test on SK-MEL-5, 17.5 µM (inactive). Moreover, the GI50 in the test on SK-OV-3 is 41.5 µM (inactive); in the test on RXF 393, 26.8 µM (inactive).
As for `O=C(O)c1cc2ccccc2c(O)c1O`, the GI50 in the test on NCI-H460 was 22.9 µM (inactive); in the test with PC-3, 12.8 µM (inactive); in the test on SK-MEL-28, 7.03 µM (inactive); in the test with MDA-MB-435 it was 1.85 µM (inactive); in the test on HT-29, 23.2 µM (inactive); in the test on SF-539 it was 22.8 µM (inactive). Further, the GI50 with TK-10 was 21.9 µM (inactive); in the test with MDA-MB-231, 17.7 µM (inactive); in the test on UACC-62, 5.98 µM (inactive); with MCF7, 13.5 µM (inactive); in the test with A498, 26.9 µM (inactive); in the test with LOX IMVI it was 3.52 µM (inactive). Further, the GI50 is 13.5 µM (inactive) in the test with OVCAR-3; 25.8 µM (inactive) in the test with T47D; 19.8 µM (inactive) with A549; > 45.4 µM (inactive) with SR; 12.6 µM (inactive) in the test on OVCAR-8; 2.92 µM (inactive) with SK-MEL-5. Also, the GI50 with SK-OV-3 was 14.8 µM (inactive); in the test with RXF 393, 17.3 µM (inactive).
`O=C(NCCCCl)c1c(O)c2ccccc2[nH]c1=O`: the GI50 is > 100 µM (inactive) in the test on NCI-H460; > 100 µM (inactive) in the test with PC-3; > 100 µM (inactive) in the test with SK-MEL-28; > 100 µM (inactive) in the test on MDA-MB-435; > 100 µM (inactive) with HT-29; > 54 µM (inactive) in the test on SF-539. For the same compound, the GI50 with TK-10 is > 100 µM (inactive); in the test on MDA-MB-231, > 100 µM (inactive); in the test on UACC-62, > 50.9 µM (inactive); in the test with MCF7, > 91.8 µM (inactive); in the test on A498, 32.4 µM (inactive); in the test with LOX IMVI it was > 100 µM (inactive). Also, the GI50 with OVCAR-3 was > 100 µM (inactive); in the test on T47D, > 73.3 µM (inactive); in the test on A549, > 100 µM (inactive); in the test on SR it was > 100 µM (inactive); with OVCAR-8 it was > 100 µM (inactive); with SK-MEL-5, > 100 µM (inactive). Besides, the GI50 in the test on SK-OV-3 was > 80.5 µM (inactive); with RXF 393 it was > 41.3 µM (inactive).
For the compound `O=C(NO)c1ccc(OCc2ccccc2)cc1`, the GI50 in the test with NCI-H460 is 19.5 µM (inactive); in the test on PC-3 it was 23.3 µM (inactive); in the test with SK-MEL-28 it was 28.1 µM (inactive); in the test with MDA-MB-435, 29.2 µM (inactive); with HT-29, 29.2 µM (inactive); with SF-539, 28.7 µM (inactive). The GI50 was 23.7 µM (inactive) in the test with TK-10; 26.8 µM (inactive) in the test on MDA-MB-231; 14.9 µM (inactive) in the test with UACC-62; 55.8 µM (inactive) with MCF7; 16.3 µM (inactive) in the test on A498; 19.1 µM (inactive) in the test on LOX IMVI. Moreover, the GI50 was 9.95 µM (inactive) in the test with OVCAR-3; 11.5 µM (inactive) with T47D; 33 µM (inactive) with A549; 14.1 µM (inactive) with SR; 6.71 µM (inactive) with OVCAR-8; 45.6 µM (inactive) in the test on SK-MEL-5. Besides, the GI50 in the test on SK-OV-3 is 37.2 µM (inactive); with RXF 393 it was 26.7 µM (inactive).
Take `O=c1[nH][nH]c(=O)n1Cc1cccc(Cn2c(=O)[nH][nH]c2=O)c1`: the GI50 in the test on NCI-H460, in the test on PC-3, with SK-MEL-28, in the test on MDA-MB-435, with HT-29 and in the test on SF-539 was > 100 µM (inactive) in each case. Also, the GI50 in the test on TK-10, with MDA-MB-231, in the test with UACC-62, with MCF7, with A498 and in the test on LOX IMVI was > 100 µM (inactive) each time. In addition, the GI50 in the test on OVCAR-3, in the test with T47D, with A549, in the test on SR, in the test on OVCAR-8 and in the test on SK-MEL-5 was > 100 µM (inactive) each time. Also, the GI50 with SK-OV-3 and in the test with RXF 393 was > 100 µM (inactive) each time.
As to `OC12CC3c4ccccc4NC3C3Oc4cccc5c4C31CCN(CC1CC1)C2C5` (stereo not given), the GI50 in the test on NCI-H460 is 17.6 µM (inactive); in the test with PC-3 it was 16.7 µM (inactive); with SK-MEL-28, 13.8 µM (inactive); with MDA-MB-435, 17.9 µM (inactive); in the test with HT-29 it was 15.5 µM (inactive); in the test with SF-539 it was 26.5 µM (inactive). Moreover, the GI50 with TK-10 is 17.3 µM (inactive); with MDA-MB-231, 17.9 µM (inactive); with UACC-62, 18.4 µM (inactive); in the test with MCF7, 17.8 µM (inactive); in the test on A498, 17.9 µM (inactive); with LOX IMVI it was 15.9 µM (inactive). For the same compound, the GI50 with OVCAR-3 is 16.9 µM (inactive); in the test on T47D, 18.9 µM (inactive); with A549, 18.4 µM (inactive); with SR, 17.4 µM (inactive); in the test on OVCAR-8, 16.4 µM (inactive); in the test on SK-MEL-5 it was 16.8 µM (inactive). For the same compound, the values for the GI50 in the test with SK-OV-3 and with RXF 393 were 18.7 µM (inactive) and 14.3 µM (inactive), respectively.
Regarding `Nc1ncnc2c1nc(Cl)n2C1OC(CO)C(O)C1O` (stereo not given), the GI50 with NCI-H460 is 0.414 µM (active); in the test with PC-3 it was 1.44 µM (inactive); with SK-MEL-28, > 45.5 µM (inactive); in the test on MDA-MB-435, 2.21 µM (inactive); in the test with HT-29, 0.649 µM (active); in the test on SF-539 it was 4.69 µM (inactive). Also, the GI50 with TK-10 was 0.502 µM (active); with MDA-MB-231, 6.95 µM (inactive); in the test with UACC-62 it was 0.966 µM (active); in the test on MCF7, 0.562 µM (active); with A498, 4.52 µM (inactive); with LOX IMVI, 0.424 µM (active). Also, the GI50 in the test on OVCAR-3 is 2.75 µM (inactive); in the test with T47D it was 0.574 µM (active); in the test on A549, 0.991 µM (active); in the test on SR, 1.13 µM (inactive); in the test with OVCAR-8, 1.11 µM (active); in the test on SK-MEL-5, 3.25 µM (inactive). Further, the GI50 in the test on SK-OV-3 is 2.74 µM (inactive); with RXF 393 it was 0.213 µM (active).
Consider `CCCCCCCCCCCCCCC(O)C[N+](C)(CCO)CCO` (stereo not given), for which the GI50 in the test on NCI-H460 is 2.56 µM (inactive); in the test on PC-3, 1.72 µM (inactive); with SK-MEL-28, 9.79 µM (inactive); in the test on MDA-MB-435, 6.12 µM (inactive); with HT-29, 2.12 µM (inactive); in the test on SF-539, 2.4 µM (inactive). The GI50 with TK-10 is 1.39 µM (inactive); in the test on MDA-MB-231 it was 1.14 µM (inactive); in the test with UACC-62, 2.47 µM (inactive); in the test with MCF7, 12.6 µM (inactive); with A498, 4.99 µM (inactive); in the test on LOX IMVI, 1.48 µM (inactive). Moreover, the GI50 in the test on OVCAR-3 was 3.13 µM (inactive); in the test with T47D, 8.07 µM (inactive); in the test with A549, 10.2 µM (inactive); in the test with SR it was 1.92 µM (inactive); with OVCAR-8, 4.11 µM (inactive); in the test on SK-MEL-5, 4.06 µM (inactive). The GI50 with SK-OV-3 is 12.9 µM (inactive); in the test with RXF 393, 1.41 µM (inactive).
With `[O-][n+]1ccccc1Sc1nc(Sc2cccc[n+]2[O-])nc(Sc2cccc[n+]2[O-])n1`, the GI50 in the test with NCI-H460 is 1.88 µM (inactive); in the test on PC-3, 0.726 µM (active); in the test with SK-MEL-28 it was 0.697 µM (active); in the test on MDA-MB-435, 1.07 µM (active); with HT-29 it was 1.19 µM (inactive); in the test with SF-539, 2.06 µM (inactive). Further, the GI50 in the test with TK-10 is 1.76 µM (inactive); in the test with MDA-MB-231, 1.38 µM (inactive); in the test with UACC-62, 1.22 µM (inactive); in the test with MCF7, 0.778 µM (active); in the test on A498, 2.82 µM (inactive); in the test on LOX IMVI it was 0.92 µM (active). In addition, the GI50 with OVCAR-3 is 1.58 µM (inactive); in the test on T47D it was 2.03 µM (inactive); in the test with A549 it was 2.99 µM (inactive); with SR, 0.171 µM (active); with OVCAR-8, 0.569 µM (active); with SK-MEL-5, 1.31 µM (inactive). For the same compound, the GI50 is 7.24 µM (inactive) in the test with SK-OV-3 and 0.444 µM (active) in the test on RXF 393.
For the compound `CC(=O)OCC1OC(SC2=NC(=O)CS2)C(OC(C)=O)C(OC(C)=O)C1OC(C)=O` (stereo not given), the GI50 in the test with NCI-H460 was > 100 µM (inactive); with PC-3, 84.1 µM (inactive) and 95.5 µM (inactive); with SK-MEL-28, > 100 µM (inactive); with MDA-MB-435, > 100 µM (inactive); in the test with HT-29, > 100 µM (inactive); with SF-539, > 100 µM (inactive). Moreover, the GI50 is 53.7 µM (inactive) with TK-10; > 100 µM (inactive) in the test with MDA-MB-231; > 100 µM (inactive) and 76.6 µM (inactive) in the test on UACC-62; 71.4 µM (inactive) in the test with MCF7; > 100 µM (inactive) with A498; > 100 µM (inactive) in the test with LOX IMVI. The GI50 in the test on OVCAR-3 was > 100 µM (inactive); in the test with T47D, > 100 µM (inactive); with A549 it was > 100 µM (inactive); in the test on SR, 39.6 µM (inactive) and 67.5 µM (inactive); in the test on OVCAR-8, > 100 µM (inactive); in the test with SK-MEL-5, > 100 µM (inactive). The GI50 in the test on SK-OV-3 and in the test with RXF 393 was > 100 µM (inactive) each time.

As usually defined, the GI50 is the concentration at which growth is held to half of that of the control.
